US9364475B2, “Tablet formulation of a phosphatidylinositol 3-kinase inhibitor” (Sanofi, priority 2012, dated 2016)

Experiments:
PI3K signaling pathway = conditions: cell lines in vitro and human xenograft tumor tissue in vivo; cited from earlier work
[1] = test system: human xenograft tumor models; conditions: multiple human xenograft tumor models; cited from earlier work
[2] = molecular target: PI3K (phosphatidylinositol 3-kinase) (Homo sapiens, UniProt P42336); conditions: cited from earlier work
[3] = stability comparison of polymorphic forms; format: physicochemical; conditions: solid state, polymorphic forms of Compound (I)

Chain of PI3K (phosphatidylinositol 3-kinase) (P42336 whole entry): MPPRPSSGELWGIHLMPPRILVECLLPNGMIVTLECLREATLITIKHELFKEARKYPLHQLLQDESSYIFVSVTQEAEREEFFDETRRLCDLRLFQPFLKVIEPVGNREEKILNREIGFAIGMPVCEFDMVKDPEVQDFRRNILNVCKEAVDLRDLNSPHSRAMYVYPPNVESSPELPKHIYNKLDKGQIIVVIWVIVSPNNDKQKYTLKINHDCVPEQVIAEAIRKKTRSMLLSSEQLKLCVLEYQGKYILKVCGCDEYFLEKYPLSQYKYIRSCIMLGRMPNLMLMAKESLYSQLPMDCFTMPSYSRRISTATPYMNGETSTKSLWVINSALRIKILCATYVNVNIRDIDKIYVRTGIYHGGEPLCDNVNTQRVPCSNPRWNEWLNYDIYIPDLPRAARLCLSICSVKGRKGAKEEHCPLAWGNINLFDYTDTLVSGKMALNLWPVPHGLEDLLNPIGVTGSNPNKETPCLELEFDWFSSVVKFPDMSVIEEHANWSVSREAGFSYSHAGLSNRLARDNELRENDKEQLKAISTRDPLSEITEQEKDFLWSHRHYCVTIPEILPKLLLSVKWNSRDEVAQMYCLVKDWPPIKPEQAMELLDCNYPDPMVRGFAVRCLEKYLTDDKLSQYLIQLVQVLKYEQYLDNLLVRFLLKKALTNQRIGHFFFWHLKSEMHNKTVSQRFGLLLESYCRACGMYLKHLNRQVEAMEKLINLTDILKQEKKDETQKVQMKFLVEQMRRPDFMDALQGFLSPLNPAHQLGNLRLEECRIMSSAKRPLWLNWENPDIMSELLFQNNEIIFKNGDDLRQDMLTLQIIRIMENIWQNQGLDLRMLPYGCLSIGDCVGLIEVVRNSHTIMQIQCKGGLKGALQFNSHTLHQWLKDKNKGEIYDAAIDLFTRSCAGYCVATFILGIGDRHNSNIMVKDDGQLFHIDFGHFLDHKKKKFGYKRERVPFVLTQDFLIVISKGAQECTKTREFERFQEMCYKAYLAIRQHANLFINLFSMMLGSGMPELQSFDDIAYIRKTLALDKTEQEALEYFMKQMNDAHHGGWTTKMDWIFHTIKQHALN
Chain of PI3K (phosphatidylinositol 3-kinase) (P27986 whole entry partner): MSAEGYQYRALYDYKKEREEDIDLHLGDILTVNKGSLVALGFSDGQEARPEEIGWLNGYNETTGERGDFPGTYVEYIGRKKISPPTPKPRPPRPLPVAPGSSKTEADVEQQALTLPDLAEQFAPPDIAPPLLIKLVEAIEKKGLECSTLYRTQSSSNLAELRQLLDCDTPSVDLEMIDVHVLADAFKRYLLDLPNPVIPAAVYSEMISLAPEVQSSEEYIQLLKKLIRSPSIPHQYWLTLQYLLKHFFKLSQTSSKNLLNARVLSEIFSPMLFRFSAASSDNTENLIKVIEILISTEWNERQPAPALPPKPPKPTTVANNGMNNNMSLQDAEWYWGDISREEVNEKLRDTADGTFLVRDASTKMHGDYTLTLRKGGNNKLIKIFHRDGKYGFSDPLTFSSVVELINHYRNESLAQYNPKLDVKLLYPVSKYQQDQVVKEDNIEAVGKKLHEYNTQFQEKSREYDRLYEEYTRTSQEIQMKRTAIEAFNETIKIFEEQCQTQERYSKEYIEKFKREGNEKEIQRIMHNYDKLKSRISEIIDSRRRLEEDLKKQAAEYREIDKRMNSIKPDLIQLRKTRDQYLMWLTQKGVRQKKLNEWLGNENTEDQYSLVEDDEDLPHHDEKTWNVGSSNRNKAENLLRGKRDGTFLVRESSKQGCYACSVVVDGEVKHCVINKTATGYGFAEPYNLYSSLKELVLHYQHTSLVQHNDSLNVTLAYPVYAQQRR

| SMILES | phosphorylation of multiple downstream components of the PI3K signaling pathway (PI3K signaling pathway) | tumor growth in human xenograft tumor models [1] | inhibition of PI3K [2] | stability among the polymorphic forms evaluated [3] |
| --- | --- | --- | --- | --- |
| COc1ccc(Cl)c(Nc2nc3ccccc3[nH]/c2=N\S(=O)(=O)c2cccc(NC(=O)C(C)(C)N)c2)c1 [Compound (I), N-(3-{[(2Z)-3-[(2-chloro-5-methoxyphenyl)amino]quinoxalin-2(1H)-ylidene]sulfamoyl}phenyl)-2-methylalaninamide] | inhibits phosphorylation | tumor growth inhibition and tumor regression | potent and selective inhibitor |  |
| COc1ccc(Cl)c(Nc2nc3ccccc3nc2NS(=O)(=O)c2cccc(NC(=O)C(C)(C)N)c2)c1 [Polymorph E, N-(3-{[(2Z)-3-[(2-chloro-5-methoxyphenyl)amino]quinoxalin-2(1H)-ylidene]sulfamoyl}phenyl)-2-methylalaninamide] |  |  |  | most stable polymorphic form |
